Consider two molecules from patent EP0359745B1, “GROWTH FACTOR RECEPTOR” (IMPERIAL CANCER RESEARCH TECHNOLOGY LIMITED, priority 1987, dated 1988).

Non-standard residues stand in square brackets, D forms with d. Residues, ends and D or L forms follow the SMILES beside them.

For test [1], the target named is T1, Mr 75000-85000 protein (Mus musculus, UniProt P21729). Kind of test: ¹²⁵I-GRP affinity labelling (EGS cross-linking) of the Mr 75000-85000 protein in Swiss 3T3 cells, SDS-PAGE and scanning densitometry. The following applies: 2.5 h; read-out: Mr 75000-85000 protein % of control. The test is classed as binding. On the set-up: endogenous in cells; host or cells: Swiss 3T3 cells (confluent, quiescent, intact). How it is done: (§1) After 2.5 h the cells were washed three times at 15°C with phosphate buffered saline (PBS) ad then incubated for 15 min at 15°C In 1 ml of binding medium, pH 7.4 In the presence of the appropriate cross-linking agent at the concentration indicated. The cross-linking agents (EGS, DSS, DSP and BSCOES) were dissolved in dimethyl sulphoxide immediately prior to use and were added to medium to give a final concentration of dimethylsulphoxide of 1-2%. The cultures were rapidly rinsed twice with PBS at 4°C and solubilized in 0.1ml of 2 x sample buffer 0.2 M Tris-HCl, pH 6.8, 10% (w/v) glycerol, 6% sodium dodecyl sulphate (SDS) (w/v) 4% β-mercaptoethanol (v/v) and 2 mM ethylenediaminetetraacetic acid. Samples were immediately heated at 100°C for 3-5 min and analysed by either one or two-dimensional gel electrophoresis.
T1 sequence (P21729 whole entry): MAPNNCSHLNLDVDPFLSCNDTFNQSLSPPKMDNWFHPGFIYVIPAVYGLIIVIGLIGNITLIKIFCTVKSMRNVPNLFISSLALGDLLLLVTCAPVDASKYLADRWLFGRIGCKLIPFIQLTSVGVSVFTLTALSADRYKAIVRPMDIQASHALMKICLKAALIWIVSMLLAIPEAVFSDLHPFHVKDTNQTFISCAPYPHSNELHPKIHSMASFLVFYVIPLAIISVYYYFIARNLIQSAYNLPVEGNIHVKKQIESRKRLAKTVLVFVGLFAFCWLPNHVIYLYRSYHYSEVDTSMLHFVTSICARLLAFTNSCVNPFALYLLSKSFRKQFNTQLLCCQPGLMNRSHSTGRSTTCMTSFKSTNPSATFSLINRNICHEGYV
Slab gel electrophoresis was performed using 7.5% acrylamide in the separating gel ad 5% in the stacking gel, ad 0.1% SDS (31). […] The Mr 75000-85000 band from autoradiograms was scanned using a Joyce-Loebl double beam densitometer and the areas under specific peaks were measured with a Hewlett-Packard digitizer.
Confluent cultures of 3T3 cells were incubated with 5 nM ¹²⁵I-GRP in the presence of varying concentrations of non-radioactive ligand at 15°C for 2.5 h. […] The cells were then solubilized and samples were analyzed by SDS-PAGE. […]

Test [2] concerns the target T1, Mr 75000-85000 protein. The test is described as above. The test is classed as binding. Set-up: endogenous in cells; host or cells: Swiss 3T3 cells (mouse fibroblasts). On the procedure: as §1
Slab gel electrophoresis was performed using 7.5% acrylamide in the separating gel ad 5% in the stacking gel, ad 0.1% SDS (31). After electrophoresis gels were stained, destained and dried down onto paper for autoradiography with Fuji X-ray film (Fuji Photo Film Co. Ltd. Japan). Dried gels were exposed to film for 4-8 days. Two-dimensional gel electrophoresis was performed as described by O'Farrell (32) using isoelectric focusing in the 1st dimension and SDS-polyacrylamide gel electrophoresis (SDS-PAGE) (8% polyacrylamide) in the second dimension. The samples prepared for isoelectric focusing containing 1.4% LKB ampholytes, pH 5-7, plus 0.6% LKD ampholytes, pH 3.5-10, 6M urea, and 2% Nonidet P-40. The Mr 75000-85000 band from autoradiograms was scanned using a Joyce-Loebl double beam densitometer and the areas under specific peaks were measured with a Hewlett-Packard digitizer.
After this time some cells were washed four times with cold (4°C) PBS supplemented with 1 mg/ml BSA, solubilized and total cell associated radioactivity was then determined in a gamma counter. […] The cells were then solubilized and samples were analyzed by SDS-PAGE. After electrophoresis, gels were dried, exposed to film and scanned as described in Materials and Methods. The areas under the individual peaks for the Mr 75000-85000 protein are shown as a function of the concentration of the unlabelled peptide and are expressed as a percentage of the control. […] The level of the Mr 75000-85000 protein expressed in arbitrary units is shown as a function of the concentration of the labelled ligand. Inset: autoradiogram of the gel used for scanning; the Mr 75000-85000 and 160,000 bands are indicated by arrows. All other experimental details were as described in Materials and Methods.
(§2) Figure 4. […] Values are expressed as percentage of the specific binding obtained in the absence of antagonists. […] Each point represents the mean of 3 determinations. […] Specific binding (B) is expressed in pmol/10⁶ cells and is shown in a double-reciprocal plot. Each point represents the mean of duplicate determinations. […] After 2 hours, the cultures were washed twice with binding medium then incubated in 1 ml containing 6 mM ethylene glycol bis (succinimidylsuccinate) (EGS) at pH 7.4 for 15 minutes at 15°C. The cultures were then washed twice with cold phosphate-buffered saline and solubilised in 0.1 ml of 2x sample buffer, then immediately heated at 100°C for 5 minutes and electrophoresed on a 10% polyacrylamide gel.
After the incubation period cultures were treated with 6 mM EGS as described in Materials and Methods. Each value is expressed as a percentage of the level of the Mr 75000-85000 protein obtained with no additons (-). Other experimental details are as described in Materials and Methods.

Test [3] deals with Swiss 3T3 cells. Kind of test: reversal of the inhibition of [¹²⁵I]EGF binding induced by GRP in Swiss 3T3 cells. To be noted: read-out: Half-maximal reversal of inhibition (of [¹²⁵I]EGF binding by GRP); [¹²⁵I]EGF 0.2 nM, GRP 3.6 nM, 1 hour, 37°C. It is filed as cell-based, mouse. How it is done:
(§3) Figure 5. […] Left: Effects of antagonists on [Ca²⁺]i. Quiescent Swiss 3T3 cells grown on Cytodex 2 beads were washed twice with DMEM and incubated for 10 minutes with fura-2 tetracetoxymethyl ester at 1 »m, then washed three times and suspended in 2 ml of electrolyte solution (6) in the fluorimeter at 37°C and stirred. Fluorescence was recorded continuously in a Perkins-Elmer LS5 luminescence spectrometer with an excitation wavelength of 335 nm and emission wavelength of 510 nm. After a period of equilibration, the following additions were made: solvent, S; antagonist A at 5 »m, A, 5 and 20 »m, A, 20; antagonist D at 5»m, D, 5. […] Values are expressed as percentages of the specific binding obtained with [¹²⁵I]EGF alone at 0.2 nM. The non-specific binding was obtained by the addition of 500-fold excess of unlabelled EGF. Each point represents the mean of 6 determinations.

Another test relates to H128. Put plainly: growth of SCLC cell line in serum-free medium (cell number, Coulter Counter). It is filed as cell-based. To be noted: antagonist at 150 »m, reversed by washing. How it is done:
(§4) Figure 6. […] Stock cultures of cell lines H69, H128 and H417 were maintained in RPMI 1640 medium with 10% fetal bovine serum (heat inactivated) in a humidified atmosphere of 10% CO₂:90% air at 37°C. They were passaged every 7 days. Identical growth was obtained in the serum-free medium of RPMI 1640 supplemented with HITES (29) (hydrocortisone, 10 nM; insulin, 5 »g/ml; transferrin, 100 »g/ml; 17β-estradiol, 10 nM; sodium selenite, 30 nM) and 0.25% bovine serum albumin. […] Cell number was determined at intervals over 14 days in a Coulter Counter after disaggregation of cell clumps by syringing through 19G and 21G needles. Each point represents the mean of 3 determinations.

A further test concerns H417. Described as above. To be noted: antagonist at 150 »m, reversed by washing. It is filed as cell-based. On the procedure: as §4
For a further test, the system named is H69 cells. The test is described as above. It is filed as cell-based. On the procedure:
as §4
Figure 7. Inhibition of SCLC growth in vitro by [DPro²]spantide and [DPhe⁵]spantide is concentration-dependent. Cultures of H69 cells were washed twice with RPMI 1640 medium then incubated in serum-free medium (as in Figure 6) in the absence (●) or presence of various concentrations of [DPro²]spantide (o,A) and [DPhe⁵]spantide (△,D). Cell number was determined in a Coulter Counter after disaggregation of cell clumps by syringing through 19G and 21 G needles. Samples were incubated for 13 days, when the controls (inset) had achieved 10-fold increase in number, indicated by the arrow. Each point represents the mean (± standard deviation) of 5 determinations.

The test system of test [4] is Swiss 3T3 cells. Put plainly: GRP-stimulated rise in cytosolic Ca²⁺ concentration (fura-2 fluorescence) in Swiss 3T3 cells. The test is classed as cell-based, mouse. The following applies: GRP (1 nM). On the procedure: as §3
The next test deals with T2, GRP receptor (Mus musculus, UniProt P21729).
T2 construct: endogenous in cells; host or cells: Swiss 3T3 cells (mouse fibroblasts)
T2 sequence (P21729 whole entry): as above
Kind of test: specific [¹²⁵I]GRP binding to intact Swiss 3T3 cells. To be noted: read-out: Half-maximal inhibition of binding. How it is done: (§5) Cell culture procedure (33), assays of DNA synthesis by ³H-thymidine incorporation (34) ad ¹²⁵I-GRP binding to intact cells (13) were performed as described previously.
as §2

The test system of test [5] is Swiss 3T3 cells. Put plainly: GRP-induced DNA synthesis ([³H]thymidine incorporation) in Swiss 3T3 cells. It is filed as cell-based, mouse. How it is done: as §5
Figure 3. Inhibition of GRP-induced DNA synthesis by [DPro²]spantide (A) and [DPhe⁵]spantide (D). […] After 40 hours DNA synthesis was estimated by [³H]thymidine incorporation into acid-precipitable material. […] Each point represents the mean of duplicate determinations. […] Values are expressed as a percentage of [³H]thymidine incorporation obtained in the absence of antagonists (100% = 8.6 x 10⁵ cpm per dish). Each point represents the mean of 4 determinations.

Consider `CCCC(=O)O[C@@H]1[C@@H](C)[C@@]2(O)[C@@H](C=C(CO)C[C@]3(O)C(=O)C(C)=C[C@@H]23)[C@@H]2C(C)(C)[C@]12OC(=O)CCC` [Phorbol 12,13-dibutyrate], for which the remaining activity at 2 µM on Mr 75000-85000 protein [1] amounted to 99%.

`CC(C)C[C@H](NC(=O)[C@H](CC(C)C)NC(=O)[C@@H](Cc1c[nH]c2ccccc12)NC(=O)[C@H](Cc1ccccc1)NC(=O)[C@@H](Cc1c[nH]c2ccccc12)NC(=O)[C@H](CCC(N)=O)NC(=O)[C@H](CCC(N)=O)NC(=O)[C@@H]1CCCN1C(=O)[C@H](CCCCN)NC(=O)[C@H]1CCCN1C(=O)[C@H](N)CCCNC(=N)N)C(N)=O` [[DPro²]spantide, D-Arg-D-Pro-Lys-Pro-Gln-Gln-D-Trp-Phe-D-Trp-Leu-Leu-NH₂] (H-[dR][dP]KPQQ[dW]F[dW]LL-NH2): the IC50 at Mr 75000-85000 protein [2] (read-out: Half-maximal inhibition (affinity-labelling of the Mr 75000-85000 protein)) worked out at 20 µM; in the test on H69 cells (H69 cells, serum-free medium, 13 days, read-out: half-maximal effect (inhibition of growth)) it was 82 µM; at GRP receptor, 14 µM; with Swiss 3T3 cells [5] (GRP 3.6 nM, 40 hours, Figure 3 right, read-out: Half-maximal inhibition of DNA synthesis), 118 µM. For the same molecule, at Mr 75000-85000 protein [2] (summary of Table 1, saturating concentrations of the other mitogens), the “cross-linking of ¹²⁵I-GRP / level of the Mr 75000-85000 protein (in words)” value was “markedly inhibited”. Also, at Mr 75000-85000 protein [2] (¹²⁵I-GRP (0.5 nM), 15°C, 2.5 h, 6 mM EGS, additions: GRP 360 nM, GRP (14-27) 30 nM, bombesin 30 nM, litorin 92 nM, neuromedin B 220 nM, [D-Arg¹,D-Pro²,D-Trp^7,9,Leu¹¹] substance P 100 »M, GRP (1-16) 3230 nM, PDGF 5 nM, EGF 83 nM, vasopressin 1000 nM, insulin 1 »g/ml, phorbol 12,13 dibutyrate 2000 nM, substance P 740 nM, substance K 880 nM, somatostatin 610 nM, neurotensin 600 nM), the “Mr 75000-85000 protein % of control” value is on record as 9.7 % of control. In the test with Swiss 3T3 cells [3], the EC50 amounted to 30 µM. For the same molecule, the “rate of growth in serum-free medium” value is recorded as “abolished” in the test with H128; “abolished” with H417; “abolished” with H69 cells (H69, antagonist at 150 »m, reversed by washing). Also, the “rise in [Ca²⁺]i caused by the addition of GRP” value with Swiss 3T3 cells [4] (antagonist at 5 »m) is “not”; with Swiss 3T3 cells [4] (antagonist at 20 »m), “prevented”. Moreover, the “concentration of GRP required to produce half-maximal stimulation of DNA synthesis” value in the test on Swiss 3T3 cells [5] (antagonist at 20 »m, Figure 3 left) was “only a slight effect”.
